Source: the supplement of paper PMC10307832

What was measured:
Experiment in all cases: relative viability (nuclei count vs DMSO), 5 days (fraction); higher = more cells survive
[1] = compound: CCC1=CN=CN=C1N2CCN(CC2)CC3=NC4=C(N3)C=C(C=C4)C(F)(F)F + COc1cc2c(Oc3ccc(NC(=O)C4(C(=O)Nc5ccc(F)cc5)CC4)cc3F)ccnc2cc1OCCCN1CCOCC1 [Foretinib] (partner 0.25 µM)
Summary of the method: (§1)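 Relative viability divides the nuclei count in treated wells by that in vehicle wells. Lung cancer cell lines were seeded in 1536-well plates, dosed by pin tool the next day, and fixed and stained after 5 days in one step with final 0.05% Triton X-100, 1% formaldehyde and 1 ug/ml Hoechst. Dosing was a single drug or a fixed anchor-drug dose plus five library-drug doses (not always all listed) in √10 steps, and values are medians of duplicate plates imaged at 4×.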

Mirin + Trametinib = compound: N=C1NC(=O)/C(=C/c2ccc(O)cc2)S1 [Mirin] + CC(=O)Nc1cccc(-n2c(=O)n(C3CC3)c(=O)c3c(Nc4ccc(I)cc4F)n(C)c(=O)c(C)c32)c1 [Trametinib] (partner 0.02 µM)
Summary of the method: as §1

[2] = compound: CCn1c(-c2nonc2N)nc2cnc(Oc3cccc(NC(=O)c4ccc(OCCN5CCOCC5)cc4)c3)cc21 + Cc1nc(NC(=O)N2CCC[C@H]2C(N)=O)sc1-c1ccnc(C(C)(C)C(F)(F)F)c1 [Alpelisib] (partner 2 µM)
Summary of the method: as §1

[3] = compound: CCn1c(-c2nonc2N)nc2cnc(Oc3cccc(NC(=O)c4ccc(OCCN5CCOCC5)cc4)c3)cc21 + CC1(C)CCC(c2ccc(Cl)cc2)=C(CN2CCN(c3ccc(C(=O)NS(=O)(=O)c4ccc(N[C@H](CCN5CCOCC5)CSc5ccccc5)c(S(=O)(=O)C(F)(F)F)c4)cc3)CC2)C1 [Navitoclax] (partner 0.5 µM)
Summary of the method: as §1

Cell Line | relative viability ([1]; first compound 0.04 µM) | relative viability ([1]; first compound 0.1265 µM) | relative viability ([1]; first compound 0.4 µM) | relative viability ([1]; first compound 1.265 µM) | relative viability ([1]; first compound 4 µM) | relative viability (Mirin + Trametinib; first compound 0.25 µM) | relative viability (Mirin + Trametinib; first compound 0.7906 µM) | relative viability (Mirin + Trametinib; first compound 2.5 µM) | relative viability (Mirin + Trametinib; first compound 7.906 µM) | relative viability (Mirin + Trametinib; first compound 25 µM) | relative viability ([2]; first compound 0.04 µM) | relative viability ([2]; first compound 0.1265 µM) | relative viability ([2]; first compound 0.4 µM) | relative viability ([2]; first compound 1.265 µM) | relative viability ([2]; first compound 4 µM) | relative viability ([3]; first compound 0.04 µM) | relative viability ([3]; first compound 0.1265 µM) | relative viability ([3]; first compound 0.4 µM) | relative viability ([3]; first compound 1.265 µM) | relative viability ([3]; first compound 4 µM)
HCC-78 | 0.585 | 0.631 | 0.491 | 0.51 | 0.539 | 0.647 | 0.715 | 0.885 | 0.709 | 0.72 | 0.494 | 0.336 | 0.429 | 0.487 | 0.455 | 1.05 | 0.782 | 0.848 | 0.878 | 0.926
HCC-366 | 0.856 | 1.01 | 0.915 | 0.877 | 0.851 | 0.382 | 0.348 | 0.33 | 0.337 | 0.28 | 0.462 | 0.429 | 0.21 | 0.0494 | 0.031 | 1.25 | 1.14 | 1.04 | 0.178 | 0.0486
HCC-827 | 0.962 | 0.945 | 1.02 | – | 0.826 | 0.529 | 0.471 | 0.584 | 0.607 | 0.547 | 1.11 | 0.973 | 0.996 | 1.07 | 0.947 | 1.09 | 0.98 | 0.982 | 1.02 | 0.841
HOP-62 | 1.14 | 1.12 | 1.07 | 1.25 | 0.942 | 0.369 | 0.447 | 0.355 | 0.491 | 0.398 | 1.11 | 1.01 | 0.925 | 0.824 | 1.01 | 1.26 | 1.07 | 1.05 | – | 1.06
IA-LM | 1.11 | 0.943 | 1.02 | 1.1 | 1.22 | – | – | – | – | – | 1.17 | 0.929 | 0.871 | 0.825 | 0.687 | 1.06 | 1.03 | 0.781 | 0.799 | 0.725
LC-2-ad | 0.927 | 0.88 | 0.922 | 0.803 | 0.857 | 0.964 | 1.06 | 0.979 | 0.906 | 0.945 | 0.945 | 0.542 | 0.797 | 0.658 | 0.515 | 0.522 | 0.439 | 0.508 | 0.214 | 0.167
LCLC-97TM1 | 0.897 | 0.898 | 0.895 | 0.838 | 0.888 | 0.172 | 0.179 | 0.235 | 0.176 | 0.165 | 0.276 | 0.236 | – | 0.3 | 0.305 | 0.481 | 0.333 | – | 0.463 | 0.442
LCLC-103H | 0.917 | 0.852 | 0.757 | 0.644 | 0.688 | 0.744 | 0.799 | 0.735 | 0.735 | 0.833 | 1.2 | 0.935 | 0.961 | 1.11 | 1.03 | – | – | – | – | –
